Test results taken from US11697667B2, “Salts and polymorphs of cethromycin for the treatment of disease” (AliquantumRx, Inc., priority 2019, dated 2023).

What was measured:
[1] = Variable-temperature PXRD / thermal behaviour of acetate pattern 1; type: physicochemical; details: after VT PXRD
Method: For variable temperature (VT-XRPD) experiments samples were mounted on an Anton Paar DHS 900 hot stage at ambient conditions. The sample was then heated to the appropriate temperature at 20° C./min and subsequently held isothermally for 1 minute before data collection. Samples were prepared and analysed on a silicon wafer mounted to the hot stage using a heat-conducting paste.
In order to investigate this further a VT PXRD experiment on this material was carried out. On heating, the original white powder converts first to a translucent solid by 130° C., then to a translucent white solid by 170° C. This conversion is accompanied by loss of the original diffraction pattern is lost and appearance of a new diffraction pattern. […] The material is stable at RT.

[2] = Storage stability at 40° C./75% RH and 25° C./97% RH (PXRD, HPLC, NMR); type: physicochemical; details: 7 days
Method: Studies were performed on various cethromycin forms in order to determine stability for storage.

malaria = assay: Mouse malaria blood stage high parasitemia parasite killing model; type: in vivo, mice
From the text: Additionally or alternatively, mouse malaria blood stage activity may be tested in a high parasitemia parasite killing model (n=5 mice/dose) to assess rate of killing and minimal dose and duration for cure as disclosed above and/or according to methods known in the art. Quantifiable endpoints may include measured activity against malaria.

[3] = tested on: malaria (infective sporozoites); assay: Liver stage activity in murine malaria model; type: in vivo, mice
From the text: Quantifiable endpoints may include measured activity against malaria.

| Compound | Stability of the form at RT [1] | HPLC Purity after storage at 40° C./75% RH for 7 days [2] [%] | PXRD after storage at 40° C./75% RH for 7 days ([2]; made from acetate pattern 1 by heating to 150° C.) | Blood stage activity relative to the activity of cethromycin chloride (malaria) | Liver stage activity relative to the activity of cethromycin chloride [3] |
| --- | --- | --- | --- | --- | --- |
| CC[C@H]1OC(=O)[C@H](C)C(=O)[C@H](C)[C@@H](O[C@@H]2O[C@H](C)C[C@H](N(C)C)[C@H]2O)[C@](C)(OCC=Cc2cnc3ccccc3c2)C[C@@H](C)C(=O)[C@H](C)[C@H]2NC(=O)O[C@@]21C [freebase pattern 1] | stable at RT | 96.6 | freebase pattern 1 |  |  |
| CCC1OC(=O)C(C)C(=O)C(C)C(OC2OC(C)CC(NC)C2O)C(C)(OCC=Cc2cnc3ccccc3c2)CC(C)C(=O)C(C)C2NC(=O)OC12C (centres unmarked) [M1 metabolite, N-desmethyl cethromycin] |  |  |  | less than 30% | less than 30% |
